For 18 molecules, IC50 and Kd results are on record in patent US10526316B2, “Quinoxaline and pyridopyrazine derivatives as PI3Kβ inhibitors” (Janssen Pharmaceutica NV, priority 2015, dated 2020).

Structures are written as SMILES. Where two headings read alike, the source gives them in different places.

For experiment [1], the system named is Akt phosphorylated at Thr308 in PC-3 cells. Briefly: Cellular assay: phosphorylation of Akt at Thr308 in PC-3 cells (MSD ELISA). It is filed as cell-based. Conditions: PC-3 cells, 60 min compound incubation, MSD ELISA, read-out: IC50 pAkt_Thr308. In short, it runs like this:
(§1)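 Electrochemiluminescent sandwich ELISA read-out: phospho-specific capture (Ser473 or Thr308), Sulfo-tag anti-total Akt detection, signal proportional to phospho-Akt. Cells treated 60 min at 37° C with compound, DMSO 0.3%. IC50 fitted from five concentrations.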

A further experiment deals with T1, PI3Kδ (Homo sapiens, UniProt O00329).
T1 construct: purchased DiscoveRx Corporation, San Diego (contract service, KINOMEscan)
T1 sequence (O00329 1-1044): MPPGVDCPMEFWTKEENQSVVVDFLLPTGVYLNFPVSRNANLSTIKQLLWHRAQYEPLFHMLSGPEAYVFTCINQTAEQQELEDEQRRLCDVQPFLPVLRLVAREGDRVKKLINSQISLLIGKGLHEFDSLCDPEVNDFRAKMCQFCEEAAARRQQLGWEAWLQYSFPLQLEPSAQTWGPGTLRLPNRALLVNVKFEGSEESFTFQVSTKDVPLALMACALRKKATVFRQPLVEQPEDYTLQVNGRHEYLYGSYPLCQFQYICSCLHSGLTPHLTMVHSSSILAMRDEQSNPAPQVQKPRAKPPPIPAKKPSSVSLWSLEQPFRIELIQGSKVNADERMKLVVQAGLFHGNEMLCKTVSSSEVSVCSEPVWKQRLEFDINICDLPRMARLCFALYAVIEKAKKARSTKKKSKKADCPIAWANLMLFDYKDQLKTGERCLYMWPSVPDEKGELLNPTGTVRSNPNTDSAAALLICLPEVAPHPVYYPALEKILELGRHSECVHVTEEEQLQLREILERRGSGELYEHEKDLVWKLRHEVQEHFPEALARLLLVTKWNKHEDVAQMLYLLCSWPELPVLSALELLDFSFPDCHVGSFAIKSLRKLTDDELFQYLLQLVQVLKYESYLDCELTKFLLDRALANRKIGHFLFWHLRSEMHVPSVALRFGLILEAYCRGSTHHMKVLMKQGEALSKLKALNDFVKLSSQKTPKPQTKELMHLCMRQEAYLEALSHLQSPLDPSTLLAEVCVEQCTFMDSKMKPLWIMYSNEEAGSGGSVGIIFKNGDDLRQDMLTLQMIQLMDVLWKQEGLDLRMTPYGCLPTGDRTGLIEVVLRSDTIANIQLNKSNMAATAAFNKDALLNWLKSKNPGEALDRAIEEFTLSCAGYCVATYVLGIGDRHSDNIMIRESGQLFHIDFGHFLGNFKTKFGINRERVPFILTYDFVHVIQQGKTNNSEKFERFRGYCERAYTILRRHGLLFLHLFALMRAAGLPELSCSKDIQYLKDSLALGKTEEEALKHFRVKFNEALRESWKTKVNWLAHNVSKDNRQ
Kind of experiment: Enzyme binding assay (KINOMEscan, DiscoveRx). The settings on record: PIK3Cδ_h. In short, it runs like this: (§2)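 Compounds were profiled by KINOMEscan to obtain kinase binding affinities.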

For experiment [2], the system named is Akt phosphorylated at Ser473 in PC-3 cells. Kind of experiment: Cellular assay: phosphorylation of Akt at Ser473 in PC-3 cells (MSD ELISA). The settings on record: PC-3 cells, 60 min compound incubation, MSD ELISA, read-out: IC50 pAkt_S473. It is filed as cell-based. In short, it runs like this: as §1
The target in experiment [3] is T2, kinase enzymes (Homo sapiens, UniProt P42336).
T2 construct: purchased DiscoveRx Corporation, San Diego (contract service, KINOMEscan)
T2 sequence (P42336 whole entry): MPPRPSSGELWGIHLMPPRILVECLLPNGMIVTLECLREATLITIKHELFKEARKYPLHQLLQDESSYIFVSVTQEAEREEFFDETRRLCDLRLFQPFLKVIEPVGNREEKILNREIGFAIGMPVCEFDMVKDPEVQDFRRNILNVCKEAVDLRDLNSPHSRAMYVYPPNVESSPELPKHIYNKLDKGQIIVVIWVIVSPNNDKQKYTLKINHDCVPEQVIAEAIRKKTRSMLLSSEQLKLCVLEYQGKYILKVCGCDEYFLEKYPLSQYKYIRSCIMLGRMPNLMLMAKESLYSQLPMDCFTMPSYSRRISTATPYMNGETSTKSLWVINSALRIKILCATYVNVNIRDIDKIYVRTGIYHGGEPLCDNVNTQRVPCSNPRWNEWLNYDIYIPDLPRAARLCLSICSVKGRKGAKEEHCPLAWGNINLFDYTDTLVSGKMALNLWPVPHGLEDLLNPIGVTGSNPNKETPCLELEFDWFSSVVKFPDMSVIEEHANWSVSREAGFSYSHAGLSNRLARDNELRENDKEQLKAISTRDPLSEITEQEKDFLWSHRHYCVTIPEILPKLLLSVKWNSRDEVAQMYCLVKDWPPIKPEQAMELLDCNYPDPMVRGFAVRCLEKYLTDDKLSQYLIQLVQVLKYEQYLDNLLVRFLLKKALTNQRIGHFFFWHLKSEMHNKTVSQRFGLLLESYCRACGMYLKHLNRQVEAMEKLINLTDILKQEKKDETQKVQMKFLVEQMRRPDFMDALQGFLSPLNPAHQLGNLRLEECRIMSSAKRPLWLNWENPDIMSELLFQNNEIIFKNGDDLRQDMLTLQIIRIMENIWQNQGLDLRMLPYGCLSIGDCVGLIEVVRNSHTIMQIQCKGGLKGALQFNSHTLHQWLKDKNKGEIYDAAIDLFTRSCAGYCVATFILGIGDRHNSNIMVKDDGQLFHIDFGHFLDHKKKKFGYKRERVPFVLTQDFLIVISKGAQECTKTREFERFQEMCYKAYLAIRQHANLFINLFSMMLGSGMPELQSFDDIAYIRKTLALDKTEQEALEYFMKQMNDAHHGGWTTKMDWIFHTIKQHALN
Briefly: Enzyme binding assay (KINOMEscan, DiscoveRx), further kinases of Table A. The settings on record: PIK3Cα_h. In short, it runs like this: as §2

The target of experiment [4] is T3, kinase enzymes (Homo sapiens, UniProt P42345).
T3 construct: purchased DiscoveRx Corporation, San Diego (contract service, KINOMEscan)
The description is as above. The settings on record: MTOR_h. In short, it runs like this: as §2

The target of experiment [5] is T4, kinase enzymes (Homo sapiens, UniProt P48736).
T4 construct: purchased DiscoveRx Corporation, San Diego (contract service, KINOMEscan)
T4 sequence (P48736 whole entry): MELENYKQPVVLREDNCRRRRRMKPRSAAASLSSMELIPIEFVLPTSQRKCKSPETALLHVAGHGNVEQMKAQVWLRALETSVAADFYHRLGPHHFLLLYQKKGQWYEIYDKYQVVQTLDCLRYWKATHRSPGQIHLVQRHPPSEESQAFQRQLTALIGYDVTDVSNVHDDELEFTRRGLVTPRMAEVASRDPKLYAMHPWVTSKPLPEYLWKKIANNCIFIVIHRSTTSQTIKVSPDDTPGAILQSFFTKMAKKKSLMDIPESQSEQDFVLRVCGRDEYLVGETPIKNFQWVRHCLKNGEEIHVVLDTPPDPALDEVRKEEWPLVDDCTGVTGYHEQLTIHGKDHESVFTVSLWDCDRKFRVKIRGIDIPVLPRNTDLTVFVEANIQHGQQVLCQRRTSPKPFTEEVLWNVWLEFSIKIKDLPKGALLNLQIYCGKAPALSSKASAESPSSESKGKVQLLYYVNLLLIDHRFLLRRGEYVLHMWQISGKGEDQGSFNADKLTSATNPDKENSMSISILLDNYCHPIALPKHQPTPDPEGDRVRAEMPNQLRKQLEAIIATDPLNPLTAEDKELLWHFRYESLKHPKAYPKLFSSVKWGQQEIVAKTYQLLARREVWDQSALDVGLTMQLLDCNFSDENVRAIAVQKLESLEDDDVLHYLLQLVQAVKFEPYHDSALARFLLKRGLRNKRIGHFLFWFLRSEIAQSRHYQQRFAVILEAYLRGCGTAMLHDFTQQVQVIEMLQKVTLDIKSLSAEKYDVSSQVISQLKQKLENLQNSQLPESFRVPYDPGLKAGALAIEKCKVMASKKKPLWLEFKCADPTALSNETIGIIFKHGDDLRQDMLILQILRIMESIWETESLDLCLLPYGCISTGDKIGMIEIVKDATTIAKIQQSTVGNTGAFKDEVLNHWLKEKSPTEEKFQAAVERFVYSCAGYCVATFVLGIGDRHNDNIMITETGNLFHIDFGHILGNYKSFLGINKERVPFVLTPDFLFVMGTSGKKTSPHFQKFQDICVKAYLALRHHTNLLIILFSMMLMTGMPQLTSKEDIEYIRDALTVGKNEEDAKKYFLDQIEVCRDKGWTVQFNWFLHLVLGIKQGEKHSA
The experiment is described as above. The settings on record: PIK3Cγ_h. In short, it runs like this: as §2

A further experiment addresses T5, PI3Kβ (Homo sapiens, UniProt P42338).
T5 construct: purchased DiscoveRx Corporation, San Diego (contract service, KINOMEscan)
Briefly: Enzyme binding assay (KINOMEscan, DiscoveRx). The settings on record: PIK3Cβ_h, read-out: Kd PIK3Cβ_h. In short, it runs like this:
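Compounds are profiled for binding to the kinase using KINOMEscan. The affinity is then reported as an inhibitor Kd in nanomolar units.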

T5 sequence (P42338 whole entry): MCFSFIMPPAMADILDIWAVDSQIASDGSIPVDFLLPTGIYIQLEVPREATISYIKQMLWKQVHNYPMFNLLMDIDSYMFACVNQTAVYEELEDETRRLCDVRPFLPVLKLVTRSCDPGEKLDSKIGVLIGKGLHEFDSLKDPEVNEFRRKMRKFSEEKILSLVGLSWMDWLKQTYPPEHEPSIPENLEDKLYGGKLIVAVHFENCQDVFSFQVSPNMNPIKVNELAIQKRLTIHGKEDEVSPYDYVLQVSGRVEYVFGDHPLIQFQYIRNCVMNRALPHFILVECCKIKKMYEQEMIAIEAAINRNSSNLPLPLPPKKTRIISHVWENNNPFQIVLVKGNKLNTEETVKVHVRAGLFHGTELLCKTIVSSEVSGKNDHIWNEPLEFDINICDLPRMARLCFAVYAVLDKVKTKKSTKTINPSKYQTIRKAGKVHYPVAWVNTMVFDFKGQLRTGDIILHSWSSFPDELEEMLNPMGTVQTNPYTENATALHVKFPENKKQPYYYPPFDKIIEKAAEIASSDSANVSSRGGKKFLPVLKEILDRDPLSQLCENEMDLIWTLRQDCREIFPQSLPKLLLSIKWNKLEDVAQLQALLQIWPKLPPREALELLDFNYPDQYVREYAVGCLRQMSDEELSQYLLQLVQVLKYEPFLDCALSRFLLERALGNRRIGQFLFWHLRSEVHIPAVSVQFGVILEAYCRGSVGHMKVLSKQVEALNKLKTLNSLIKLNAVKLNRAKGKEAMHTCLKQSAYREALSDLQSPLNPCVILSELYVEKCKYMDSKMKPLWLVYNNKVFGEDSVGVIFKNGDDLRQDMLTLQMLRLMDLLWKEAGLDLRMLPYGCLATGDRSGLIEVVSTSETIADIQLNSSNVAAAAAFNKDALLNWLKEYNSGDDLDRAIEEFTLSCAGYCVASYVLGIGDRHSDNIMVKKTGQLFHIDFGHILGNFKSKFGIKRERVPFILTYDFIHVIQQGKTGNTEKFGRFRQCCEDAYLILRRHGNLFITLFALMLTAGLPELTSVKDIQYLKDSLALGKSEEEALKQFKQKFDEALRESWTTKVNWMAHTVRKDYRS

On to `CC(Nc1cc(F)c(F)c(F)c1)c1cc(C(=O)NCCN(C)C)cc2ncc(N3CCOCC3)nc12` (single isomer, unassigned) [Compound 309b], for which the IC50 in experiment [1] is 282 nM; in experiment [2], 363 nM. Further, the Kd at PI3Kδ is 2340 nM; on kinase enzymes [3], 4900 nM; at kinase enzymes [4], above 30200 nM; at kinase enzymes [5], 5620 nM; on PI3Kβ, 18 nM.

As to `CC(Nc1cc(F)cc(F)c1)c1cc(C(=O)N(C)C)cc2ncc(C3=CCOCC3)nc12` (single isomer, unassigned) [Compound 158], the results for the IC50 in experiment [1] and in experiment [2] were 20 nM and 23 nM, respectively. The Kd at PI3Kδ is 120 nM; at kinase enzymes [3], 339 nM; on kinase enzymes [4], above 30200 nM; on kinase enzymes [5], 2290 nM; at PI3Kβ it was 0.4 nM.

In the case of `COC(=O)c1cc(C(C)Nc2cc(F)cc(F)c2)c2nc(N3CCOCC3)cnc2c1` (stereo not drawn) [Compound 235], the IC50 in experiment [1] (Homo sapiens, PC-3, 1 h) was 79 nM; in experiment [2] (Homo sapiens, PC-3, 1 h) it was 214 nM. The Kd on PI3Kδ was 7590 nM; at kinase enzymes [3] it was above 32000 nM; at kinase enzymes [4], above 32000 nM; on kinase enzymes [5] it was 24500 nM; at PI3Kβ, 50 nM.

For the molecule `CC(Nc1cc(F)cc(F)c1)c1cc(CN2CCS(=O)(=O)CC2)cc2ncc(N3CCOCC3)nc12` (single isomer, unassigned) [Compound 156], the IC50 worked out at 51 nM in experiment [1] and 42 nM in experiment [2]. Further, the Kd on PI3Kδ was 363 nM; on kinase enzymes [3] it was 398 nM; on kinase enzymes [4], above 30200 nM; on kinase enzymes [5] it was above 30200 nM; on PI3Kβ, 2 nM.

Consider `CC(Nc1cc(F)cc(F)c1)c1cc(C(=O)N2CCNC(C(F)(F)F)C2)cc2ncc(N3CCOCC3)nc12` (single isomer, unassigned) [Compound 237d], for which the IC50 in experiment [1] and in experiment [2] was above 513 nM each time. The Kd on PI3Kδ was 19500 nM; on kinase enzymes [3], 12600 nM; at kinase enzymes [4], above 30200 nM; at kinase enzymes [5] it was above 30200 nM; on PI3Kβ, 240 nM.

For `CN[C@H]1CCN(C(=O)c2cc(C(C)Nc3cc(F)c(F)c(F)c3)c3nc(N4CCOCC4)cnc3c2)C1` (single isomer, unassigned) [Compound 297b], the results for the IC50 in experiment [1] and in experiment [2] were 3 nM and 7 nM, respectively. In addition, the Kd is 112 nM at PI3Kδ; 1020 nM on kinase enzymes [3]; above 30200 nM on kinase enzymes [4]; 1480 nM at kinase enzymes [5]; 0.5 nM at PI3Kβ.

For `Cc1c(F)cccc1CN(C)c1cc(C(=O)N2CCNC(C(F)(F)F)C2)cc2ncc(N3CCOCC3)nc12` (single isomer, unassigned) [Compound 367b], the IC50 in experiment [1] and in experiment [2] was above 513 nM throughout. Further, the Kd at PI3Kδ is 427 nM; at kinase enzymes [3], 2460 nM; at kinase enzymes [4], 28200 nM; at kinase enzymes [5] it was above 30200 nM; on PI3Kβ it was 35 nM.

As for `CC(Nc1cc(F)cc(F)c1)c1cc(COCCO)cc2ncc(N3CCOCC3)nc12` (single isomer, unassigned) [Compound 178], the IC50 in experiment [1] and in experiment [2] was above 513 nM throughout. Also, the Kd on PI3Kδ is 16600 nM; at kinase enzymes [3], above 30200 nM; on kinase enzymes [4], above 30200 nM; at kinase enzymes [5], above 30200 nM; at PI3Kβ, 1100 nM.

Take `CN(C)C(=O)c1cc([C@H]2CCCN2c2cc(F)cc(F)c2)c2nc(N3CCOCC3)cnc2c1` [Compound 1]: the results for the IC50 in experiment [1] and in experiment [2] were 3 nM and 2 nM, respectively. Besides, the Kd at PI3Kδ turned out to be 15 nM; at kinase enzymes [3], 34 nM; at kinase enzymes [4], 28200 nM; on kinase enzymes [5], 313 nM; on PI3Kβ, 0.3 nM.

Turning to `Cc1cccc(N(C)C(C)c2cc(C(=O)N(C)C)cc3ncc(N4CCOCC4)nc23)c1` (single isomer, unassigned) [Compound 128], the IC50 in experiment [1] and in experiment [2] was above 513 nM each time. In addition, the Kd on PI3Kδ was 15100 nM; on kinase enzymes [3] it was 4900 nM; at kinase enzymes [4] it was 21400 nM; at kinase enzymes [5] it was 12300 nM; on PI3Kβ, 1120 nM.

`CC(Nc1cc(F)cc(F)c1)c1cc(C(=O)NC[C@H](C)O)cc2ncc(N3CCOCC3)nc12` (single isomer, unassigned) [Compound 246a]: the IC50 in experiment [1] (Homo sapiens, PC-3, 1 h) stood at 24 nM; in experiment [2] (Homo sapiens, PC-3, 1 h) it was 44 nM. Further, the Kd on PI3Kδ stood at 3890 nM; at kinase enzymes [3] it was 813 nM; on kinase enzymes [4] it was 26900 nM; on kinase enzymes [5], 6760 nM; on PI3Kβ, 4 nM.

On to `CC(Nc1cc(F)cc(F)c1)c1cc(CN2CCO[C@H](CO)C2)cc2ncc(N3CCOCC3)nc12` (single isomer, unassigned) [Compound 194], for which the IC50 is above 513 nM in experiment [1] (Homo sapiens, PC-3, 1 h) and above 513 nM in experiment [2] (Homo sapiens, PC-3, 1 h). Also, the Kd on PI3Kδ was above 30200 nM; on kinase enzymes [3], above 30200 nM; on kinase enzymes [4], above 30200 nM; on kinase enzymes [5], above 30200 nM; on PI3Kβ, 1820 nM.

For `CNCCN(C)C(=O)c1cc(N(C)Cc2cccc(F)c2C)c2nc(N3CCOCC3)cnc2c1` [Compound 362], the IC50 in experiment [1] (Homo sapiens, PC-3, 1 h) amounted to 263 nM; in experiment [2] (Homo sapiens, PC-3, 1 h), 229 nM. The Kd on PI3Kδ came out at 490 nM; at kinase enzymes [3], 2950 nM; on kinase enzymes [4], 19100 nM; at kinase enzymes [5] it was 9770 nM; at PI3Kβ it was 2 nM.

Regarding `CC(Nc1cc(F)c(F)c(F)c1)c1cc(C(=O)N(C)C2CCNC2)cc2ncc(N3CCOCC3)nc12` (single isomer, unassigned) [Compound 296a], the IC50 in experiment [1] was determined as 16 nM; in experiment [2], 23 nM. The Kd was 170 nM at PI3Kδ; 1380 nM on kinase enzymes [3]; above 30200 nM at kinase enzymes [4]; 3240 nM on kinase enzymes [5]; 1 nM on PI3Kβ.

Take `CC(Oc1cc(F)c(F)c(F)c1)c1cc(C(=O)N(C)C2CCNC2)cc2ncc(N3CCOCC3)nc12` (single isomer, unassigned) [Compound 404a]: the IC50 was above 513 nM in experiment [1] (Homo sapiens, PC-3, 1 h) and above 513 nM in experiment [2] (Homo sapiens, PC-3, 1 h). Besides, the Kd at PI3Kδ is above 30200 nM; at kinase enzymes [3], above 30200 nM; on kinase enzymes [4], above 30200 nM; at kinase enzymes [5], above 30200 nM; on PI3Kβ, 1510 nM.

Take `CN[C@H]1CCN(C(=O)c2cc(C(C)Nc3cc(F)c(F)c(F)c3)c3nc(N4CCOCC4)cnc3c2)C1` (single isomer, unassigned) [Compound 297a]: the IC50 is 204 nM in experiment [1] and 200 nM in experiment [2]. In addition, the Kd on PI3Kδ is 6310 nM; at kinase enzymes [3], 17000 nM; at kinase enzymes [4], above 30200 nM; at kinase enzymes [5], 15100 nM; on PI3Kβ, 26 nM.

As to `CC1CN(c2cnc3cc(C(=O)N(C)C)cc(N4CCCC4c4cc(F)cc(F)c4)c3n2)CCO1` (stereo not drawn) [Compound 396], the IC50 was above 513 nM in experiment [1] (Homo sapiens, PC-3, 1 h) and above 513 nM in experiment [2] (Homo sapiens, PC-3, 1 h). Also, the Kd is 2040 nM on PI3Kδ; 7760 nM at kinase enzymes [3]; above 30200 nM on kinase enzymes [4]; 20900 nM on kinase enzymes [5]; 120 nM at PI3Kβ.

`Cc1c(F)cccc1CN(C)c1cc(C(=O)N2CCNC(C(F)(F)F)C2)cc2ncc(N3CCOCC3)nc12` (single isomer, unassigned) [Compound 367a]: the IC50 was above 513 nM in experiment [1] (Homo sapiens, PC-3, 1 h) and above 513 nM in experiment [2] (Homo sapiens, PC-3, 1 h). Further, the Kd on PI3Kδ turned out to be 1150 nM; at kinase enzymes [3], 4070 nM; on kinase enzymes [4], 29500 nM; at kinase enzymes [5], 23400 nM; on PI3Kβ, 63 nM.
